Read-outs that look alike come from different tables or passages of the source.

For test [1], the target named is T1, μ-opioid receptor (Homo sapiens (Human), UniProt P35372). Description: μ-opioid receptor [35S]GTPγS functional assay. It is filed as biochemical. The protocol:
[^35S]GTPγS functional assays were conducted using freshly thawed μ-receptor membranes prepared in-house from a cell line expressing recombinant μ opioid receptor in a HEK-293, CHO or U-2 OS cell background, or purchased from a commercial source (Perkin Elmer, Shelton, Conn.; or DiscovRx, Fremont, Calif.). Assay reactions were prepared by sequentially adding the following reagents to binding buffer (100 mM NaCl, 10 mM MgCl2, 20 mM HEPES, pH 7.4) on ice (final concentrations indicated): membrane protein (0.026 mg/mL), saponin ([…]), GDP ([…]) and [^35S]GTPγS (0.20 nM; Perkin Elmer, Shelton, Conn.). The prepared membrane solution (190 l/well) was transferred to 96-shallow well polypropylene plates containing 10 μl of 20× concentrated stock solutions of the agonist [D-Ala^2, N-methyl-Phe^4 Gly-ol^5]-enkephalin (DAMGO) prepared in dimethyl sulfoxide (DMSO). Plates were incubated for 30 min at about 25° C. with shaking. Reactions were terminated by rapid filtration onto 96-well Unifilter GF/B filter plates (Perkin Elmer, Shelton, Conn.) using a 96-well tissue harvester (Perkin Elmer, Shelton, Conn.) followed by three filtration washes with 200 μl of ice-cold wash buffer (10 mM NaH2PO4, 10 mM Na2HPO4, pH 7.4). Filter plates were subsequently dried at 50° C. for 2-3 hours. BetaScint scintillation cocktail (Perkin Elmer, Shelton, Conn.) was added (50 μl/well) and plates were counted using a Packard Top-Count for 1 min/well. Data were analyzed using the sigmoidal dose-response curve fitting functions in GraphPad PRISM v. 3.0, or an in-house function for non-linear, sigmoidal dose-response curve-fitting.
μ GTP EC50 is the concentration of a compound providing 50% of the maximal response for the compound at a μ-opioid receptor.
μ GTP Emax (%) is the maximal effect elicited by a compound relative to the effect elicited by DAMGO, a standard μ agonist. Generally, the μ GTP Emax (%) value measures the efficacy of a compound to treat or prevent pain or other Conditions.
(§1) In TABLE 2, activity response of certain Compounds of the Invention to the μ- and κ-opioid receptors was determined as described above for functional assays using U-2 OS cells.
In general terms: Binding of GTPγS marks nucleotide exchange on a G protein.

Test [2] concerns the target T2, κ opioid receptor (Homo sapiens (Human), UniProt P41145). The test is described as follows: κ-opioid receptor [35S]GTPγS functional assay. It is filed as biochemical. Here is the method:
Functional [^35S]GTPγS binding assays were conducted as follows. κ opioid receptor membrane solution was prepared by sequentially adding final concentrations of 0.026 μg/μl κ membrane protein (in-house), 10 μg/mL saponin, 3 μM GDP and 0.20 nM [^35S]GTPγS to binding buffer (100 mM NaCl, 10 mM MgCl2, 20 mM HEPES, pH 7.4) on ice. The prepared membrane solution (190 μl/well) was transferred to 96-shallow well polypropylene plates containing 10 μl of 20× concentrated stock solutions of agonist prepared in DMSO. Plates were incubated for 30 min at a temperature of about 25° C. with shaking. Reactions were terminated by rapid filtration onto 96-well Unifilter GF/B filter plates (Perkin Elmer, Shelton, Conn.) using a 96-well tissue harvester (Packard) and followed by three filtration washes with 200 μl ice-cold binding buffer (10 mM NaH2PO4, 10 mM Na2HPO4, pH 7.4). Filter plates were subsequently dried at 50° C. for 2-3 hours. Fifty μl/well scintillation cocktail (Perkin Elmer, Shelton, Conn.) was added and plates were counted in a Packard Top-Count for 1 min/well.
κ GTP EC50 is the concentration of a compound providing 50% of the maximal response for the compound at a K receptor.
κ GTP Emax (%) is the maximal effect elicited by a compound relative to the effect elicited by U69,593.
as §1

Test [3] concerns the target T2, κ opioid receptor. The test is described as follows: κ-opioid receptor radioligand dose-displacement binding assay ([3H]-U69,593). The settings on record: binding assays using HEK-293 cells; read-out: Opioid Receptor Ki (nM) κ. Here is the method: Membranes from HEK-293 cells, CHO or U-2 OS cells expressing the recombinant human κ opioid receptor (κ) were prepared by lysing cells in ice cold hypotonic buffer (2.5 mM MgCl2, 50 mM HEPES, pH 7.4) (10 mL/10 cm dish) followed by homogenization with a tissue grinder/Teflon pestle. Membranes from a cell line naturally expressing kappa opioid receptor can also be used. Membranes were collected by centrifugation at 30,000×g for 15 min at 4° C. and pellets were resuspended in hypotonic buffer to a final concentration of 1-3 mg/mL. Protein concentrations were determined using the BioRad protein assay reagent with bovine serum albumen as standard. Aliquots of K receptor membranes were stored at −80° C.
Radioligand dose displacement assays used 0.4 nM [^3H]-U69,593 (GE Healthcare, Piscataway, N.J.; 40 Ci/mmole) with 15 μg membrane protein (recombinant κ opioid receptor expressed in HEK 293 cells; in-house prep) in a final volume of 200 μl binding buffer (5% DMSO, 50 mM Trizma base, pH 7.4). Non-specific binding was determined in the presence of 10 μM unlabeled naloxone or U69,593. All reactions were performed in 96-well polypropylene plates for 1 hour at a temperature of about 25° C. Binding reactions were terminated by rapid filtration onto 96-well Unifilter GF/C filter plates (Perkin Elmer, Shelton, Conn.) presoaked in 0.5% polyethylenimine (Sigma). Harvesting was performed using a 96-well tissue harvester (Perkin Elmer, Shelton, Conn.) followed by five filtration washes with 200 μl ice-cold binding buffer. Filter plates were subsequently dried at 50° C. for 1-2 hours. Fifty μl/well scintillation cocktail (Perkin Elmer, Shelton, Conn.) was added and plates were counted in a Packard Top-Count for 1 min/well.
(§2) In TABLE 1, binding affinity of certain Compounds of the Invention to the μ- and κ-opioid receptors was determined as described above for binding assays using HEK-293 cells.

In test [4] the target is T1, μ-opioid receptor. The test is described as follows: μ-opioid receptor radioligand dose-displacement binding assay ([3H]-diprenorphine). The conditions noted are these: binding assays using HEK-293 cells; read-out: Opioid Receptor Ki (nM) μ. The protocol: Radioligand dose-displacement binding assays for μ-opioid receptors used 0.3 nM [^3H]-diprenorphine (Perkin Elmer, Shelton, Conn.), with […] membrane protein/well in a final volume of 500 μl binding buffer (10 mM MgCl2, 1 mM EDTA, 5% DMSO, 50 mM HEPES, pH 7.4). Reactions were carried out in the absence or presence of increasing concentrations of unlabeled naloxone. All reactions were conducted in 96-deep well polypropylene plates for 2 hours at room temperature. Binding reactions were terminated by rapid filtration onto 96-well Unifilter GF/C filter plates (Perkin Elmer, Shelton, Conn.), presoaked in 0.5% polyethylenimine using a 96-well tissue harvester (Perkin Elmer, Shelton, Conn.) followed by performing three filtration washes with 500 μl of ice-cold binding buffer. Filter plates were subsequently dried at 50° C. for 2-3 hours. BetaScint scintillation cocktail (Perkin Elmer, Shelton, Conn.) was added (50 μl/well), and plates were counted using a Packard Top-Count for 1 min/well. The data were analyzed using the one-site competition curve fitting functions in GraphPad PRISM™ v. 3.0 or higher (San Diego, Calif.), or an in-house function for one-site competition curve-fitting.
as §2

Where [5] appears, read: functional assays using U-2 OS cells, relative to the effect elicited by DAMGO.
Where [6] appears, read: functional assays using U-2 OS cells, relative to the effect elicited by U69,593.

Take “(4bR,4′S,8aS,9S,10R)-11-(cyclopropylmethyl)-10-fluoro-8a-hydroxy-3-methoxy-5,7,8,8a,9,10-tetrahydrospiro [9,4b-(epiminoethano)phenanthrene-6,4′-imidazolidine]-2′,5′-dione [Compound 18]”: the EC50 in test [1] (functional assays using U-2 OS cells, read-out: Opioid Receptor μ EC50) is 1550 ± 184 nM; in test [2] (functional assays using U-2 OS cells, read-out: Opioid Receptor κ EC50) it was 1480 ± 125 nM. Also, the “Opioid Receptor μ Emax (%)” value in test [1] (setting [5]) was found to be 14.7 ± 0.33%. For the same compound, in test [2] (setting [6]), the “Opioid Receptor κ Emax (%)” value is listed as 81.7 ± 0.88%.
With `O=C1NC(=O)[C@@]2(CC[C@@]3(O)[C@H]4C(=O)c5ccc(O)cc5[C@@]3(CCN4CC3CC3)C2)N1` [Compound 13, (4bR,4′S,8aS,9S)-11-(cyclopropylmethyl)-3,8a-dihydroxy-7,8,8a,9-tetrahydrospiro[9,4b-(epiminoethano)phenanthrene-6,4′-imidazolidine]-2′,5′,10(5H)-trione], the Ki in test [3] worked out at 12.2 ± 0.61 nM; in test [4], 472 ± 40.8 nM. Moreover, the values for the EC50 in test [1] and in test [2] were 37.5 ± 6.18 nM and 8.79 ± 1.26 nM, respectively. The Emax was 61.3 ± 5.78% in test [1] (setting [5]) and 106 ± 2.52% in test [2] (setting [6]).
For `CN1CC[C@]23C[C@]4(CC[C@@]2(O)[C@H]1[C@H](O)c1ccc(O)cc13)NC(=O)NC4=O` [Compound 17, (4bR,4′S,8aS,9R,10R)-3,8a,10-trihydroxy-11-methyl-5,7,8,8a,9,10-hexahydrospiro[9,4b-(epiminoethano)phenanthrene-6,4′-imidazolidine]-2′,5′-dione], the EC50 in test [1] amounted to 116 ± 23 nM; in test [2], 5780 ± 1100 nM. Besides, the Emax in test [1] (setting [5]) amounted to 98.8 ± 0.97%; in test [2] (setting [6]), 107 ± 1.53%.

A word on the EC50: it is the concentration giving half of the maximal effect. The Ki is the dissociation constant of the complex between target and ligand, obtained from inhibition or displacement. One may read the Emax as the greatest response seen or fitted, relative to the assay's reference.
